# Results reported in patent US9295259B2, “Fungicidal substituted 1-{2-[2-halo-4-(4-halogen-phenoxy)-phenyl]-2-alkoxy-3-methyl-butyl}-1H [1,2,4]triazole compounds” (BASF SE, priority 2011, dated 2016).
# Tests used:
# Septoria tritici = experiment: Activity against leaf blotch on wheat caused by Septoria tritici (Septtr), microtest; assay type: cell-based; conditions: relative growth vs compound-free control (100%), 405 nm, 7 days after inoculation
# Phakopsora pachyrhizi = experiment: Protective control of soy bean rust on soy beans (Phakpa P2), green house; assay type: in vivo, Phakopsora pachyrhizi on soy bean; conditions: 16 ppm spray, inoculated 2 days after treatment, % diseased leaf area, untreated control 80
Structure (SMILES),Growth (%) at 0.000125 ppm Septtr (Septoria tritici) [%],Disease (%) at 16 ppm Phakpa P2 (Phakopsora pachyrhizi) [%]
COC(C)(Cn1cncn1)c1ccc(Oc2ccc(Cl)cc2)cc1Cl (stereo not shown) [EP 0126430],63,60
"CCC(Cn1cncn1)(OC)c1ccc(Oc2ccc(Cl)cc2)cc1Cl (stereo not shown) [U.S. Pat. No. 4,940,720]",53,60
